Data reported in patent US6270780A, “Cosmetic compositions containing resveratrol” (Chesebrough-Pond's USA Co., division of Conopco, priority 1998, dated 2001).
Like-named read-outs stand apart in the source and are kept apart here.

Assays:
[1] = system: human promyelocytic leukemia cells; settings: Jang et al., Science 275: 218-220, 1997; cited from earlier work
[2] = system: B16 F1 cells; assay: Melanin production by B16 cells; assay type: cell-based
Experimental: B16 F1 cells were purchased from ATCC (Rockville, Md.) Subconfluent B16 cells were seeded in 96 well microtiter plates at a density of 5000 cells/well and cultured overnight in DMEM (Life Technologies, NY) containing 10% Fetal Bovine Serum, 1% penicillin/streptomycin without phenol red) at 37° C. under 5% CO2. After 24 hours, the media was replaced with fresh media containing the treatments. Cells were incubated for 72 hours at which time melanin was visible in the control treatment. Next, the melanin containing media from each well was transferred to a clean 96 well plate and quantified by reading the absorbance at 530 nm using a microplate Spectrophotometer.
(§1) For each treatment, the average of four replicate readings was calculated and expressed as percent of the average for the untreated control.
The lower the % melanin value (with a viability value of >50%), the better the skin lightening potential.

[3] = Cell viability of B16 cells by neutral red dye uptake; assay type: cell-based; settings: mouse, b16 f1 cells
Experimental: In order to ensure that melanin inhibition was not simply due to cell killing, cell viability was assessed by neutral red dye uptake. After the removal of media, 200 μL of pre-warmed medium containing 25 μg/ml neutral red dye was added to each well and incubated for 3 hours. Cells were washed 2× with PBS. The dye was extracted by adding […] of 50 H2O: 49 ethanol: 1 acetic acid and then gently shaken at room temperature for 20 minutes. The dye was quantified by reading the absorbance at 530 nm. Only viable cells are expected to take up the dye and the absorbance is directly proportional to the number of viable cells surviving the treatment.
as §1

[4] = system: cyclo-oxygenase; settings: known; cited from earlier work
[5] = system: Normal human keratinocytes; assay: 3H-thymidine incorporation (DNA synthesis) / proliferation of keratinocytes; assay type: cell-based
Source text: The incorporation of ^3 H-thymidine by cultured cells was used as an assay of cell proliferation (both for ZR75 cells and for keratinocytes). Thymidine is one of four deoxynucleosides which are the monomeric units of DNA. Prior to cell division of a somatic cell, the complete genome of the cell undergoing cell division is replicated. This involves large scale DNA synthesis by the cell and enables both daughter cells to receive identical copies of the genetic material. When ^3 H-thymidine is included in the culture media of cells which are synthesizing DNA in preparation for cell division then the labeled thymidine is incorporated into the newly synthesized DNA. The extent of incorporation of ^3 H-thymidine into a population of cells is proportional to the rate of DNA synthesis by this population of cells and therefore an indication of their cellular proliferation.
1. Normal human keratinocytes isolated from neonatal foreskins by trypsin treatment were grown in Dulbecco's modified Eagle's medium (DME)/5% fetal calf serum in the presence of mitomycin C treated 3T3 mouse fibroblasts for establishing dividing keratinocyte colonies. Keratinocytes were grown under the above condition until their third passage.
2. For the experiments, third passage keratinocytes were plated into a serum-free keratinocyte growth medium (KGM; obtained from Clonetics, San Diego, Calif.) containing 0.09 mM calcium. About 30,000 cells were plated into each well of 6 well cell culture plates and grown for 5 days, until the cells reach about 40% confluence.
3. Medium was changed to fresh medium (KBM; obtained from Clonetics) and resveratrol at various concentrations as indicated in Table 2 was added to the medium from a DMSO (Dimethylsulfoxide) stock solution. The final DMSO concentration in the cultures was 0.1%. Control cultures received no resveratrol but were dosed with 0.1% DMSO. Each concentration was tested in three separate wells. After four hours, 1 μCi of ^3 H-thymidine (Amersham Corp., Sp activity 40 Ci/mmol) was added to 1 ml of medium in each well. The cells were incubated for 2 hours. The amount of ^3 H-thymidine associated with the cellular DNA of keratinocytes was assessed as described below.
4. The medium was aspirated, and the wells washed with 1 ml PBS. The DNA and proteins of the cells in the plate were then precipitated by adding 1 ml of ice-cold 10% TCA. The plates were left on ice for 30 minutes to complete the precipitation process. TCA was then aspirated and each well was then washed 4 times with 5% TCA. The cells in the wells were dissolved in 0.5 ml of […] sodium hydroxide. 200 μl was then transferred to a scintillation vial for assessing thymidine incorporation and 25 μl was used for a protein assay using BCA protein assay reagent as described below. 5 ml of a scintillation fluid (Scintiverse) was added to the rest of the solution in the vial, and the vials were counted in a scintillation counter to determine the amount of radioactivity in each vial.
BCA (Bicinchoninic Acid)--Protein Assay
25 μl of cell suspension were placed in a 96 well plate. Standards of BSA (bovine serum albumin) in 0.1N Sodium Hydroxide were also pipetted in triplicate in the same 96 well plate. Pierce BCA protein assay reagent was added (200 μl/well) and plate was incubated for 2 hours at room temperature. Absorbance was read at a wavelength of 570 nm on a Dynatech MR7000 plate reader.
The DNA synthesis rate was then calculated as cpm ^3 H-thymidine incorporated into total cellular DNA/μg of cell protein for each individual well. Mean and standard deviation for each group were also calculated. These numbers were also expressed as percent of control wells. Each data point is expressed as mean of triplicate wells±standard deviation.
The results that were obtained are summarized in Table 2. p values of less than […] were considered to indicate statistical significance.
Example 2 was repeated at various additional concentrations of resveratrol.

SMILES: Oc1ccc(/C=C/c2cc(O)cc(O)c2)cc1 [Resveratrol, 3,4'5-stilbenetriol]
- differentiation of human promyelocytic leukemia cells [1]: induce differentiation of human promyelocytic leukemia cells
- activity at 10 µM ([2]; Mus musculus, B16-F1, 10 μM, 72 hours): 80%
- activity at 25 µM ([2]; Mus musculus, B16-F1, 25 μM, 72 hours): 4%
- activity at 50 µM ([2]; Mus musculus, B16-F1, 50 μM, 72 hours): 3.9%
- activity at 100 µM ([2]; Mus musculus, B16-F1, 100 μM, 72 hours): 6.6%
- melanin production by skin cells ([2]; all concentrations tested where viability was greater than 50%): inhibited melanin production by skin cells
- viability at 72 h, 10 µM ([3]; 10 μM): 94.6%
- viability at 72 h, 25 µM ([3]; 25 μM): 86.8%
- viability at 72 h, 50 µM ([3]; 50 μM): 69.2%
- viability at 72 h, 100 µM ([3]; 100 μM): 1.8%
- cyclo-oxygenase inhibition [4]: known cyclo-oxygenase inhibitor
- inhibition at 50 µM ([5]; Homo sapiens, Keratinocyte, Table 2 Experiment 1, 50 μM): 98%
- inhibition at 0.78 µM ([5]; Homo sapiens, Keratinocyte, Table 2 Experiment 2, 0.78 μM): 33%
- inhibition at 1.56 µM ([5]; Homo sapiens, Keratinocyte, Table 2 Experiment 2, 1.56 μM, read-out: % inhibition (DNA synthesis)): 48%
- inhibition at 3.12 µM ([5]; Homo sapiens, Keratinocyte, Table 2 Experiment 2, 3.12 μM): 70%
- inhibition at 6.25 µM ([5]; Homo sapiens, Keratinocyte, Table 2 Experiment 2, 6.25 μM): 86%
- inhibition at 12.5 µM ([5]; Homo sapiens, Keratinocyte, Table 2 Experiment 2, 12.5 μM): 94%
- inhibition at 25 µM ([5]; Homo sapiens, Keratinocyte, Table 2 Experiment 2, 25 μM): 97%
- inhibition at 50 µM ([5]; Homo sapiens, Keratinocyte, Table 2 Experiment 2, 50 μM): 97%
- inhibition at 0.1 µM ([5]; Homo sapiens, Keratinocyte, Table 3, 0.1 μM): 5%
- inhibition at 0.2 µM ([5]; Homo sapiens, Keratinocyte, Table 3, 0.2 μM): 12%
- inhibition at 0.3 µM ([5]; Homo sapiens, Keratinocyte, Table 3, 0.3 μM): 7%
- inhibition at 0.4 µM ([5]; Homo sapiens, Keratinocyte, Table 3, 0.4 μM): 14%
- inhibition at 0.6 µM ([5]; Homo sapiens, Keratinocyte, Table 3, 0.6 μM): 6%
- inhibition at 0.8 µM ([5]; Homo sapiens, Keratinocyte, Table 3, 0.8 μM): 30%
- inhibition at 1 µM ([5]; Homo sapiens, Keratinocyte, Table 3, 1.0 μM): 40%
- inhibition at 2 µM ([5]; Homo sapiens, Keratinocyte, Table 3, 2.0 μM): 59%
- inhibition at 1.56 µM ([5]; Homo sapiens, Keratinocyte, 1.56 μM, read-out: reduced keratinocyte proliferation): ~50%
- DNA synthesis (cpm/μg protein) ([5]; Table 2 Experiment 1, 50 μM): 0.62 ± 0.09 cpm/μg protein
- DNA synthesis (cpm/μg protein) ([5]; Table 2 Experiment 2, 0.78 μM): 11.57 ± 1.7 cpm/μg protein
- DNA synthesis (cpm/μg protein) ([5]; Table 2 Experiment 2, 1.56 μM): 8.89 ± 1.12 cpm/μg protein
- DNA synthesis (cpm/μg protein) ([5]; Table 2 Experiment 2, 3.12 μM): 5.11 ± 0.27 cpm/μg protein
- DNA synthesis (cpm/μg protein) ([5]; Table 2 Experiment 2, 6.25 μM): 2.45 ± 0.56 cpm/μg protein
- DNA synthesis (cpm/μg protein) ([5]; Table 2 Experiment 2, 12.5 μM): 1.07 ± 0.11 cpm/μg protein
- DNA synthesis (cpm/μg protein) ([5]; Table 2 Experiment 2, 25 μM): 0.58 ± 0.05 cpm/μg protein
- DNA synthesis (cpm/μg protein) ([5]; Table 2 Experiment 2, 50 μM): 0.44 ± 0.12 cpm/μg protein
- DNA synthesis (cpm/μg protein) ([5]; Table 3, 0.1 μM): 60.4 ± 4.1 cpm/μg protein
- DNA synthesis (cpm/μg protein) ([5]; Table 3, 0.2 μM): 56.3 ± 3.0 cpm/μg protein
- DNA synthesis (cpm/μg protein) ([5]; Table 3, 0.3 μM): 58.8 ± 0.4 cpm/μg protein
- DNA synthesis (cpm/μg protein) ([5]; Table 3, 0.4 μM): 54.2 ± 1.2 cpm/μg protein
- DNA synthesis (cpm/μg protein) ([5]; Table 3, 0.6 μM): 59.3 ± 5.5 cpm/μg protein
- DNA synthesis (cpm/μg protein) ([5]; Table 3, 0.8 μM): 44.4 ± 2.6 cpm/μg protein
- DNA synthesis (cpm/μg protein) ([5]; Table 3, 1.0 μM): 37.7 ± 4.0 cpm/μg protein
- DNA synthesis (cpm/μg protein) ([5]; Table 3, 2.0 μM): 25.7 ± 2.4 cpm/μg protein
- inhibition of DNA synthesis ([5]; both experiments, 50 μM): inhibited DNA synthesis completely
- DNA synthesis of keratinocytes ([5]; concentrations as low as 1.56 μM): decreased DNA synthesis of keratinocytes significantly
- reducing keratinocyte proliferation ([5]; concentrations lower than 0.8 μm (0.000018 wt. %)): not effective at reducing keratinocyte proliferation
